Data from ChEMBL document CHEMBL1201862, “PubChem BioAssay data set” (2004).
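Cultured in 96-well plates, cells were exposed to test compound for 48 hours across five concentrations. The concentration for 50% growth inhibition is given as GI50.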 Calls of active or inactive are those of the source. No stated cut-off is given here; in the data, active = GI50 up to about 1.1 µM and inactive = higher.

Columns and labels:
Test in all cases: DTP human tumour cell line panel, 48 h
786-0 = system: 786-0
A498 = system: A498
A549 = system: A549
ACHN = system: ACHN
BT-549 = system: BT-549
CAKI-1 = system: CAKI-1
CCRF-CEM = system: CCRF-CEM
DU-145 = system: DU-145
EKVX = system: EKVX
HCC 2998 = system: HCC 2998
HCT-15 = system: HCT-15
HL-60 = system: HL-60
HOP-62 = system: HOP-62
HOP-92 = system: HOP-92
HT-29 = system: HT-29
Hs-578T = system: Hs-578T
IGROV-1 = system: IGROV-1
K562 = system: K562
KM12 = system: KM12
LOX IMVI = system: LOX IMVI
M14 = system: M14
MCF7 = system: MCF7
MDA-MB-231 = system: MDA-MB-231
MDA-MB-435 = system: MDA-MB-435
MDA-N = system: MDA-N
MOLT-4 = system: MOLT-4
Malme-3M = system: Malme-3M
NCI-H226 = system: NCI-H226
NCI-H23 = system: NCI-H23
NCI-H460 = system: NCI-H460
NCI-H522 = system: NCI-H522
NCI/ADR-RES = system: NCI/ADR-RES
OVCAR-3 = system: OVCAR-3
OVCAR-4 = system: OVCAR-4
OVCAR-5 = system: OVCAR-5
OVCAR-8 = system: OVCAR-8
PC-3 = system: PC-3
RXF 393 = system: RXF 393
SF-268 = system: SF-268
SF-295 = system: SF-295
SF-539 = system: SF-539
SK-MEL-28 = system: SK-MEL-28
SK-MEL-2 = system: SK-MEL-2
SK-MEL-5 = system: SK-MEL-5
SK-OV-3 = system: SK-OV-3
SN12C = system: SN12C
SNB-19 = system: SNB-19
SNB-75 = system: SNB-75
SR = system: SR
SW-620 = system: SW-620
T47D = system: T47D
TK-10 = system: TK-10
U-251 = system: U-251
UACC-257 = system: UACC-257
UACC-62 = system: UACC-62
UO-31 = system: UO-31
COLO 205 = system: COLO 205
DLD-1 = system: DLD-1
DMS-114 = system: DMS-114
HCT-116 = system: HCT-116
M19-MEL = system: M19-MEL
RPMI-8226 = system: RPMI-8226
SNB-78 = system: SNB-78

`NCC1OC(OC2C(N)CC(N)C(O)C2OC2OC(CO)C(O)C2O)C(N)C(O)C1O` (stereo not given) was tested, and the GI50 (786-0) was > 50 µM (inactive), the GI50 (A498) was > 50 µM (inactive) and the GI50 (A549) was > 100 µM (inactive). The GI50 (ACHN) was > 50 µM (inactive), the GI50 (BT-549) was > 100 µM (inactive) and the GI50 (CAKI-1) was > 100 µM (inactive). For the same compound, the GI50 (CCRF-CEM) was > 100 µM (inactive), the GI50 (DU-145) was > 100 µM (inactive) and the GI50 (EKVX) was > 100 µM (inactive). The GI50 (HCC 2998) was > 50 µM (inactive), the GI50 (HCT-15) was over 100 µM and the GI50 (HL-60) was > 100 µM (inactive). For the same compound, the GI50 (HOP-62) was > 50 µM (inactive), the GI50 (HOP-92) was > 50 µM (inactive) and the GI50 (HT-29) was > 50 µM (inactive). The GI50 (Hs-578T) was > 100 µM (inactive), the GI50 (IGROV-1) was > 50 µM (inactive) and the GI50 (K562) was > 100 µM (inactive). The GI50 (KM12) was > 50 µM (inactive), the GI50 (LOX IMVI) was > 50 µM (inactive) and the GI50 (M14) was > 50 µM (inactive). For the same compound, the GI50 (MCF7) was > 100 µM (inactive), the GI50 (MDA-MB-231) was > 50 µM (inactive) and the GI50 (MDA-MB-435) was > 100 µM (inactive). For the same compound, the GI50 (MDA-N) was > 50 µM (inactive), the GI50 (MOLT-4) was > 50 µM (inactive) and the GI50 (Malme-3M) was > 100 µM (inactive). For the same compound, the GI50 (NCI-H226) was > 100 µM (inactive), the GI50 (NCI-H23) was > 100 µM (inactive) and the GI50 (NCI-H460) was > 50 µM (inactive). For the same compound, the GI50 (NCI-H522) was > 100 µM (inactive), the GI50 (NCI/ADR-RES) was > 100 µM (inactive) and the GI50 (OVCAR-3) was > 100 µM (inactive). For the same compound, the GI50 (OVCAR-4) was > 100 µM (inactive), the GI50 (OVCAR-5) was > 100 µM (inactive) and the GI50 (OVCAR-8) was > 50 µM (inactive). The GI50 (PC-3) was > 50 µM (inactive), the GI50 (RXF 393) was > 50 µM (inactive) and the GI50 (SF-268) was > 100 µM (inactive). For the same compound, the GI50 (SF-295) was > 100 µM (inactive), the GI50 (SF-539) was > 100 µM (inactive) and the GI50 (SK-MEL-28) was > 100 µM (inactive). For the same compound, the GI50 (SK-MEL-2) was > 50 µM (inactive), the GI50 (SK-MEL-5) was > 50 µM (inactive) and the GI50 (SK-OV-3) was > 50 µM (inactive). The GI50 (SN12C) was > 50 µM (inactive), the GI50 (SNB-19) was > 50 µM (inactive) and the GI50 (SNB-75) was 27.8 µM (inactive). The GI50 (SR) was > 50 µM (inactive), the GI50 (SW-620) was > 100 µM (inactive) and the GI50 (T47D) was > 50 µM (inactive). The GI50 (TK-10) was > 50 µM (inactive), the GI50 (U-251) was > 100 µM (inactive) and the GI50 (UACC-257) was > 50 µM (inactive). For the same compound, the GI50 (UACC-62) was > 100 µM (inactive) and the GI50 (UO-31) was > 100 µM (inactive).

In the case of `O=C(/C=C1\NC(=O)c2ccccc2N1)c1ccncc1`, the GI50 (786-0) is reported as > 100 µM (inactive), the GI50 (A498) is reported as > 100 µM (inactive) and the GI50 (A549) is reported as > 100 µM (inactive). For the same compound, the GI50 (ACHN) was > 100 µM (inactive), the GI50 (CAKI-1) was > 100 µM (inactive) and the GI50 (CCRF-CEM) was > 100 µM (inactive). For the same compound, the GI50 (COLO 205) was > 100 µM (inactive), the GI50 (DLD-1) was > 100 µM (inactive) and the GI50 (DMS-114) was > 100 µM (inactive). For the same compound, the GI50 (EKVX) was > 100 µM (inactive), the GI50 (HCC 2998) was > 100 µM (inactive) and the GI50 (HCT-116) was > 100 µM (inactive). The GI50 (HCT-15) was over 100 µM, the GI50 (HL-60) was > 100 µM (inactive) and the GI50 (HOP-62) was > 100 µM (inactive). For the same compound, the GI50 (HT-29) was > 100 µM (inactive), the GI50 (IGROV-1) was > 100 µM (inactive) and the GI50 (K562) was > 100 µM (inactive). The GI50 (M14) was > 100 µM (inactive), the GI50 (M19-MEL) was > 100 µM (inactive) and the GI50 (MOLT-4) was > 100 µM (inactive). For the same compound, the GI50 (Malme-3M) was > 100 µM (inactive), the GI50 (NCI-H226) was > 100 µM (inactive) and the GI50 (NCI-H23) was > 100 µM (inactive). For the same compound, the GI50 (NCI-H460) was > 100 µM (inactive), the GI50 (NCI-H522) was > 100 µM (inactive) and the GI50 (OVCAR-3) was > 100 µM (inactive). The GI50 (OVCAR-4) was > 100 µM (inactive), the GI50 (OVCAR-5) was > 100 µM (inactive) and the GI50 (OVCAR-8) was > 100 µM (inactive). For the same compound, the GI50 (RPMI-8226) was > 100 µM (inactive), the GI50 (SF-268) was > 100 µM (inactive) and the GI50 (SF-295) was > 100 µM (inactive). For the same compound, the GI50 (SK-MEL-28) was > 100 µM (inactive), the GI50 (SK-MEL-2) was > 100 µM (inactive) and the GI50 (SK-MEL-5) was > 100 µM (inactive). The GI50 (SK-OV-3) was > 100 µM (inactive), the GI50 (SN12C) was > 100 µM (inactive) and the GI50 (SNB-19) was > 100 µM (inactive). For the same compound, the GI50 (SNB-75) was 45.9 µM (inactive), the GI50 (SNB-78) was > 100 µM (inactive) and the GI50 (SR) was > 100 µM (inactive). For the same compound, the GI50 (SW-620) was > 100 µM (inactive), the GI50 (TK-10) was > 100 µM (inactive) and the GI50 (U-251) was > 100 µM (inactive). For the same compound, the GI50 (UACC-257) was > 100 µM (inactive), the GI50 (UACC-62) was > 100 µM (inactive) and the GI50 (UO-31) was > 100 µM (inactive).

In the case of `C(=N\NC1=NCCN1)/c1ccc(-c2cn3cc(/C=N/NC4=NCCN4)ccc3n2)cc1`, the GI50 (786-0) is reported as 19 µM (inactive), the GI50 (A498) is reported as 40.3 µM (inactive) and the GI50 (A549) is reported as 10.2 µM (inactive). For the same compound, the GI50 (ACHN) was 34.6 µM (inactive), the GI50 (BT-549) was 18.2 µM (inactive) and the GI50 (CAKI-1) was 22 µM (inactive). For the same compound, the GI50 (CCRF-CEM) was 2.74 µM (inactive), the GI50 (COLO 205) was > 100 µM (inactive) and the GI50 (DU-145) was 16.6 µM (inactive). The GI50 (EKVX) was > 50.4 µM (inactive), the GI50 (HCC 2998) was > 47.2 µM (inactive) and the GI50 (HCT-116) was 10.4 µM (inactive). The GI50 (HCT-15) was over 68.4 µM, the GI50 (HL-60) was 4.48 µM (inactive) and the GI50 (HOP-92) was 18.8 µM (inactive). The GI50 (HT-29) was 11.9 µM (inactive), the GI50 (Hs-578T) was > 87.3 µM (inactive) and the GI50 (IGROV-1) was 15 µM (inactive). The GI50 (K562) was 14.6 µM (inactive), the GI50 (KM12) was > 44 µM (inactive) and the GI50 (LOX IMVI) was 7.74 µM (inactive). The GI50 (M14) was > 32.7 µM (inactive), the GI50 (MCF7) was 2.2 µM (inactive) and the GI50 (MDA-MB-231) was 14.6 µM (inactive). The GI50 (MDA-MB-435) was 24.5 µM (inactive), the GI50 (MDA-N) was > 49 µM (inactive) and the GI50 (MOLT-4) was 5.35 µM (inactive). For the same compound, the GI50 (Malme-3M) was 2.82 µM (inactive), the GI50 (NCI-H23) was > 100 µM (inactive) and the GI50 (NCI-H460) was 3.76 µM (inactive). The GI50 (NCI-H522) was 10.9 µM (inactive), the GI50 (NCI/ADR-RES) was > 66.2 µM (inactive) and the GI50 (OVCAR-3) was > 39.4 µM (inactive). The GI50 (OVCAR-4) was 31 µM (inactive), the GI50 (OVCAR-5) was 64.3 µM (inactive) and the GI50 (OVCAR-8) was 37.5 µM (inactive). The GI50 (PC-3) was 22.9 µM (inactive), the GI50 (RPMI-8226) was 16.6 µM (inactive) and the GI50 (RXF 393) was > 55.6 µM (inactive). The GI50 (SF-268) was 9.79 µM (inactive), the GI50 (SF-295) was > 44.8 µM (inactive) and the GI50 (SF-539) was > 100 µM (inactive). For the same compound, the GI50 (SK-MEL-2) was > 100 µM (inactive), the GI50 (SK-MEL-5) was > 100 µM (inactive) and the GI50 (SK-OV-3) was > 100 µM (inactive). For the same compound, the GI50 (SN12C) was > 36.9 µM (inactive), the GI50 (SNB-19) was > 43.1 µM (inactive) and the GI50 (SNB-75) was > 100 µM (inactive). The GI50 (SR) was 3.33 µM (inactive), the GI50 (SW-620) was > 28.2 µM (inactive) and the GI50 (T47D) was > 100 µM (inactive). For the same compound, the GI50 (TK-10) was 26.6 µM (inactive), the GI50 (U-251) was 15.5 µM (inactive) and the GI50 (UACC-257) was 30.3 µM (inactive). For the same compound, the GI50 (UACC-62) was 40.6 µM (inactive) and the GI50 (UO-31) was 46 µM (inactive).
